pIC50: −log10 of the molar value. Where a SMILES comes first, the peptide text is derived from it. Bridges are numbered along the chain shown (N, C = ends).

This note sets out measurements from patent US10662229B2, “Spider venom peptides and methods of use for modulating sodium channels” (priority 2016, dated 2020).

Format in all cases: cell-based
In one test the target is T1, hNav1.1 (Homo sapiens, UniProt P35498).
T1 construct: host or cells: HEK293
Put plainly: FLIPR membrane potential assay, hNav1.1. To be noted: for Selectivity for Nav1.7, Nav subtype 1.1: membrane potential assay. Put shortly:
(§1)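 Stable HEK293 lines, one per hNav isoform; red membrane potential dye, 30 min, 37° C; FLIPR^TETRA read at 1 s intervals over 300 s post-agonist.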

The target in a further test is T2, hNav1.2 (Homo sapiens, UniProt Q99250).
T2 construct: host or cells: HEK293
Put plainly: FLIPR membrane potential assay, hNav1.2. To be noted: for Selectivity for Nav1.7, Nav subtype 1.2: membrane potential assay. Put shortly: as §1

The target in a further test is T3, hNav1.3 (Homo sapiens, UniProt Q9NY46).
T3 construct: host or cells: HEK293
Put plainly: FLIPR membrane potential assay, hNav1.3. As to conditions: for Selectivity for Nav1.7, Nav subtype 1.3: membrane potential assay. The gist of the method: as §1

The target of the next test is T4, hNav1.4 (Homo sapiens, UniProt P35499).
T4 construct: host or cells: HEK293
T4 sequence (P35499 whole entry): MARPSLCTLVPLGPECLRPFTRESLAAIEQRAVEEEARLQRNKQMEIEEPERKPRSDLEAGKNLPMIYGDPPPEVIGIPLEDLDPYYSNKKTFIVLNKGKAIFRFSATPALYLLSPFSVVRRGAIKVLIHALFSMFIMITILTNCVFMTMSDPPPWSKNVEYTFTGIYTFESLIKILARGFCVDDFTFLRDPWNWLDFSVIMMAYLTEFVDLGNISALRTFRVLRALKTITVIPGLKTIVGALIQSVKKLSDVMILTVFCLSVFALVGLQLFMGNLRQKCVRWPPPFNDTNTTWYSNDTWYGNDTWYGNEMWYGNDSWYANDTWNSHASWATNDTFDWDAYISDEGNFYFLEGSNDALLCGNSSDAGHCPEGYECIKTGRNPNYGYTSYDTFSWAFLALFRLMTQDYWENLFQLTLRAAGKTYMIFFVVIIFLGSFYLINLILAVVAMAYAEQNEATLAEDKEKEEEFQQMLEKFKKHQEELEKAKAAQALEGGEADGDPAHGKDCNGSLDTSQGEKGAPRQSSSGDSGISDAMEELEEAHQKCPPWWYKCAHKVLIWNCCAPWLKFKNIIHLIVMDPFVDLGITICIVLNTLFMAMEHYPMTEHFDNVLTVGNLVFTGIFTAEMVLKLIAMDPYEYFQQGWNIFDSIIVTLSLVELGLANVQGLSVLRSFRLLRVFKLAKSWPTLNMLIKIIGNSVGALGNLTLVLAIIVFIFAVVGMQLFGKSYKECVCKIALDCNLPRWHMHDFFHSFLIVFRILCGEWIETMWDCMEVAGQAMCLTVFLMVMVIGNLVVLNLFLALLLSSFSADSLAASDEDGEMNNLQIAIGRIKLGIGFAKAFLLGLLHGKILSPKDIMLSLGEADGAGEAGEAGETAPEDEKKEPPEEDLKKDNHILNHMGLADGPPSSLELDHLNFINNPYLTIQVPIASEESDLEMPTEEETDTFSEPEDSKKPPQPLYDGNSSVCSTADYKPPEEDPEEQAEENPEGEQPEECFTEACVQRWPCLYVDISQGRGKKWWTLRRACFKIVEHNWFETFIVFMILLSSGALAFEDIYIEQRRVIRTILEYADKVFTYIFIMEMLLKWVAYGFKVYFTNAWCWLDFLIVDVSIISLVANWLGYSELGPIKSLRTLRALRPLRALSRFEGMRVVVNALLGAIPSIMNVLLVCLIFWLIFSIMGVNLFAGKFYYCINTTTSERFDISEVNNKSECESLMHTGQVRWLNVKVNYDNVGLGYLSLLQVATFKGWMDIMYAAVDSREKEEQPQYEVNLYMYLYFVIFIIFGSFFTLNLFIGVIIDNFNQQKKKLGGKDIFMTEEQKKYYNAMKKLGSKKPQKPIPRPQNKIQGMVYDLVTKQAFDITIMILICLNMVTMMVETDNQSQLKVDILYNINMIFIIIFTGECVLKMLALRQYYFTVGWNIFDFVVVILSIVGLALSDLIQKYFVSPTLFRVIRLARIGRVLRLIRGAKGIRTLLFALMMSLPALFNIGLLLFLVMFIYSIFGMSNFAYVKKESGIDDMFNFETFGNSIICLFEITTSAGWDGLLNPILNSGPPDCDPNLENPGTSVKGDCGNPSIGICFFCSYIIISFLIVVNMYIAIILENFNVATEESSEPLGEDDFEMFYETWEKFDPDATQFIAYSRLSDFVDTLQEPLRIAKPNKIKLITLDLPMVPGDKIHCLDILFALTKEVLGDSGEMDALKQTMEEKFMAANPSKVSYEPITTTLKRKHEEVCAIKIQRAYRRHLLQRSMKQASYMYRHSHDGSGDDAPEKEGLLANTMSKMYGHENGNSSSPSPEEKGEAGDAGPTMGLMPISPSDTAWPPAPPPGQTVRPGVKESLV
In words: FLIPR membrane potential assay, hNav1.4. To be noted: for Selectivity for Nav1.7, Nav subtype 1.4: membrane potential assay. Put shortly:
as §1

The next test deals with T5, hNav1.5 (Homo sapiens, UniProt Q14524).
T5 construct: host or cells: HEK293
T5 sequence (Q14524 whole entry): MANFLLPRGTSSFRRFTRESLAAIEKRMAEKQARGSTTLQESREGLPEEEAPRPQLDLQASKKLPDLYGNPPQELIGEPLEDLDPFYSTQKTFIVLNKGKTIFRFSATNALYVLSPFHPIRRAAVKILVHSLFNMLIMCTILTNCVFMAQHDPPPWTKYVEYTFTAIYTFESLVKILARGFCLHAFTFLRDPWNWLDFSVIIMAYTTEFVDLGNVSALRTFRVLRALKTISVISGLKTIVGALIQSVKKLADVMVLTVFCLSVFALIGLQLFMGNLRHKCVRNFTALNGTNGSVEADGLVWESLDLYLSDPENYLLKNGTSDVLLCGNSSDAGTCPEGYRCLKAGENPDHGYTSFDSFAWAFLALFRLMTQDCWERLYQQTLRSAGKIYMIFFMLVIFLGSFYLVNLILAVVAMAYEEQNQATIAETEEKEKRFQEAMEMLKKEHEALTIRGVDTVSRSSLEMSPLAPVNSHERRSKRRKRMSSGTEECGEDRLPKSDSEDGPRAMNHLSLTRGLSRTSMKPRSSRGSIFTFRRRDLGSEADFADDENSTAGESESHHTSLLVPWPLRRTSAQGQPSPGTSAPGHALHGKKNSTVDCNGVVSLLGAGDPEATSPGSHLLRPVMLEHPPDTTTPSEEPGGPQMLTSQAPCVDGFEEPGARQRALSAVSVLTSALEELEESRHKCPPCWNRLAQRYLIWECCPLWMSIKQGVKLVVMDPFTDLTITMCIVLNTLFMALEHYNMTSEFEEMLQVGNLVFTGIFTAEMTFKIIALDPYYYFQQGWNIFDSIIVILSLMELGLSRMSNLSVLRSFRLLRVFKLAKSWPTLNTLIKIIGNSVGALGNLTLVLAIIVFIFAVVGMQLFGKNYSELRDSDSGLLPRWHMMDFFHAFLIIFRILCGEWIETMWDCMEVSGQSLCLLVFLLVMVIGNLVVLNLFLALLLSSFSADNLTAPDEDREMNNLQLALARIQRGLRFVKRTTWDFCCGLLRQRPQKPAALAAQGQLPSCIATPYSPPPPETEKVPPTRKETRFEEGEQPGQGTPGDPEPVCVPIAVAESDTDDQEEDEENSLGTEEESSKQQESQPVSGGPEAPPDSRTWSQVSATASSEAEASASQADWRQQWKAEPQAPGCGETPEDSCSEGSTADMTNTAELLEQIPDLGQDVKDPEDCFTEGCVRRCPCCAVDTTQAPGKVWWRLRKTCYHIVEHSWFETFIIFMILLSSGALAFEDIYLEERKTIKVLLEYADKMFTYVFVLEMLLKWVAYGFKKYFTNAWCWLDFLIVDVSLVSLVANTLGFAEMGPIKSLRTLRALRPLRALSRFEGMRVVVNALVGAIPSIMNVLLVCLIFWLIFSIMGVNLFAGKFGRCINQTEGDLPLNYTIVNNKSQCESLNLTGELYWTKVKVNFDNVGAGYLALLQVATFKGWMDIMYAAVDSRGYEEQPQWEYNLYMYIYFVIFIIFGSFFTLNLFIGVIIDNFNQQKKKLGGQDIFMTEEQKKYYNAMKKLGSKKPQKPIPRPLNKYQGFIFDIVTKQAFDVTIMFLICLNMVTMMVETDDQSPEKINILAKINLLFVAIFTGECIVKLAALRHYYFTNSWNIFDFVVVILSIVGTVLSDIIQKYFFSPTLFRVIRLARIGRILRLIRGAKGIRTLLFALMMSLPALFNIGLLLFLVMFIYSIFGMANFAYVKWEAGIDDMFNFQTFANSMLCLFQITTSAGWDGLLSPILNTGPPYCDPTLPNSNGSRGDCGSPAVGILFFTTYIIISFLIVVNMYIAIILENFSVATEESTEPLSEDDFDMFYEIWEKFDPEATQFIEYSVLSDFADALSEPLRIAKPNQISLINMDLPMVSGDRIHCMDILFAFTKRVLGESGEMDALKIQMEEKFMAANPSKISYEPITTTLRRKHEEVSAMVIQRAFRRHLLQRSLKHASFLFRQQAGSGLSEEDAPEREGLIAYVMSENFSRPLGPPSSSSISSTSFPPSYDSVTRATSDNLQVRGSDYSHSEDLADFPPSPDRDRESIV
In words: FLIPR membrane potential assay, hNav1.5. As to conditions: for Selectivity for Nav1.7, Nav subtype 1.5: membrane potential assay. Put shortly:
as §1

In the next test the target is T6, hNav1.6 (Homo sapiens, UniProt Q9UQD0).
T6 construct: host or cells: HEK293
Put plainly: FLIPR membrane potential assay, hNav1.6. To be noted: for Selectivity for Nav1.7, Nav subtype 1.6: membrane potential assay. The gist of the method: as §1

The next test deals with T7, hNav1.7 (Homo sapiens, UniProt Q15858).
T7 construct: host or cells: HEK293
In words: FLIPR membrane potential assay, hNav1.7. As to conditions: for Selectivity for Nav1.7, Nav subtype 1.7: membrane potential assay, reference subtype. Put shortly:
as §1

The target in the next test is T8, hNav1.8 (Homo sapiens, UniProt Q9Y5Y9).
T8 construct: host or cells: HEK293
In words: FLIPR membrane potential assay, hNav1.8. As to conditions: for Selectivity for Nav1.7, Nav subtype 1.8: membrane potential assay. Put shortly: as §1

On to `CSCC[C@@H]1NC(=O)[C@H](Cc2ccc(O)cc2)NC(=O)[C@H](CCCNC(=N)N)NC(=O)[C@@H](NC(=O)[C@@H](N)CC(=O)O)CSSC[C@@H]2NC(=O)[C@@H]3CSSC[C@@H](C(=O)N[C@@H](C)C(=O)N[C@@H](Cc4c[nH]c5ccccc45)C(=O)N[C@@H](CC(=O)O)C(=O)N[C@@H](Cc4ccccc4)C(=O)N[C@H](C(=O)N[C@@H](Cc4ccccc4)C(=O)N[C@H](C(=O)O)[C@@H](C)O)[C@@H](C)O)NC(=O)[C@H](Cc4ccc(O)cc4)NC(=O)[C@H](CCCCN)NC(=O)[C@H](CCSC)NC(=O)[C@H](CCCCN)NC(=O)[C@H](CCCNC(=N)N)NC(=O)[C@H](CCCCN)NC(=O)[C@H](CSSC[C@H](NC(=O)[C@H](CC(=O)O)NC(=O)CNC(=O)[C@H](Cc4ccccc4)NC1=O)C(=O)N[C@@H](CCC(=O)O)C(=O)N[C@@H](CCCCN)C(=O)N[C@@H](CC(=O)O)C(=O)N[C@@H](C)C(=O)N[C@@H](CC(=O)O)C(=O)N3)NC(=O)CNC(=O)[C@H](CC(C)C)NC(=O)[C@H](Cc1c[nH]cn1)NC(=O)[C@H](CCCCN)NC2=O` [[E13A]Pnc1a] (H-DCRYMFGDCEKDADCCKHLGCKRKMKYCAWDFTFT-OH; disulfide 2-16, 9-21, 15-28), for which, at hNav1.1, the pIC50 (usually −log10 of the IC50, conventionally taken in molar units) was 5.40 and the “Selectivity for Nav1.7, Nav subtype 1.1” value is given as 29. In addition, on hNav1.2, the pIC50 was 6.25 and the “Selectivity for Nav1.7, Nav subtype 1.2” value was 4. Moreover, on hNav1.3, the pIC50 is 5.70 and the “Selectivity for Nav1.7, Nav subtype 1.3” value amounted to 18. At hNav1.4, the pIC50 is 5.30 and the “Selectivity for Nav1.7, Nav subtype 1.4” value is 36. Further, on hNav1.5, the pIC50 is less than 4.52 and the “Selectivity for Nav1.7, Nav subtype 1.5” value is listed as more than 217. Further, at hNav1.6, the pIC50 is 5.10 and the “Selectivity for Nav1.7, Nav subtype 1.6” value came to 61. For the same compound, at hNav1.7, the pIC50 was 6.86 and the “Selectivity for Nav1.7, Nav subtype 1.7” value is on record as 1. Also, on hNav1.8, the pIC50 is less than 4.52 and the “Selectivity for Nav1.7, Nav subtype 1.8” value is reported as more than 217.
As for `CSCC[C@@H]1NC(=O)[C@H](Cc2ccc(O)cc2)NC(=O)[C@H](CCCNC(=N)N)NC(=O)[C@@H](NC(=O)[C@@H](N)CC(=O)O)CSSC[C@@H]2NC(=O)[C@@H]3CSSC[C@@H](C(=O)N[C@@H](C)C(=O)N[C@@H](Cc4c[nH]c5ccccc45)C(=O)N[C@@H](CC(=O)O)C(=O)N[C@@H](Cc4ccccc4)C(=O)N[C@H](C(=O)N[C@@H](Cc4ccccc4)C(=O)N[C@H](C(=O)O)[C@@H](C)O)[C@@H](C)O)NC(=O)[C@H](Cc4ccc(O)cc4)NC(=O)[C@H](CCCCN)NC(=O)[C@H](CCSC)NC(=O)[C@H](CCCNC(=N)N)NC(=O)[C@H](CCCNC(=N)N)NC(=O)[C@H](CCCCN)NC(=O)[C@H](CSSC[C@H](NC(=O)[C@H](CC(=O)O)NC(=O)CNC(=O)[C@H](Cc4ccccc4)NC1=O)C(=O)N[C@@H](CCC(=O)O)C(=O)N[C@@H](CCCCN)C(=O)N[C@@H](CC(=O)O)C(=O)N[C@@H](CCC(=O)O)C(=O)N[C@@H](CC(=O)O)C(=O)N3)NC(=O)CNC(=O)[C@H](CC(C)C)NC(=O)[C@H](Cc1c[nH]cn1)NC(=O)[C@H](CCCCN)NC2=O` [[K24R]Pnc1a] (H-DCRYMFGDCEKDEDCCKHLGCKRRMKYCAWDFTFT-OH; disulfide 2-16, 9-21, 15-28), at hNav1.1, the pIC50 was 6.07 and the “Selectivity for Nav1.7, Nav subtype 1.1” value was determined as 27. On hNav1.2, the pIC50 is 6.38 and the “Selectivity for Nav1.7, Nav subtype 1.2” value worked out at 13. Moreover, at hNav1.3, the pIC50 is 5.10 and the “Selectivity for Nav1.7, Nav subtype 1.3” value is 260. Further, on hNav1.4, the pIC50 was 5.52 and the “Selectivity for Nav1.7, Nav subtype 1.4” value stood at 102. For the same compound, at hNav1.5, the pIC50 was less than 4.52 and the “Selectivity for Nav1.7, Nav subtype 1.5” value was more than 900. Also, at hNav1.6, the pIC50 was less than 4.52 and the “Selectivity for Nav1.7, Nav subtype 1.6” value is more than 900. Besides, on hNav1.7, the pIC50 was 7.51 and the “Selectivity for Nav1.7, Nav subtype 1.7” value was found to be 1. For the same compound, at hNav1.8, the pIC50 was less than 4.52 and the “Selectivity for Nav1.7, Nav subtype 1.8” value was more than 900.
